Each compound was assayed on Human peripheral blood mononuclear cells (PBMC) (assay: PBMC screening assay: TNF-α in supernatant by ELISA or HTRF). Conditions: TNF-α activity in supernatant of human PBMC, 24 hours incubation, 1000 to 0.000238 nM.
Type: cell-based
Protocol: Materials and general procedures. Human peripheral blood mononuclear cells (PBMC) were obtained from BenTek, frozen at 25×10^6 cell/mL in 10% DMSO (Sigma) prepared in fetal bovine serum (Gibco) and stored in liquid nitrogen. For the culture, PBMC were thawed quickly in a 37° C. water bath and diluted into pre-warmed RPMI 1640 (Lonza) supplemented with 10% fetal bovine serum, 2 mM glutamine, […] (all from Gibco) and centrifuged for 5 minutes at 500×g. PBMC were suspended into the growth media described above and cultured at a concentration of 1×10^6 cells per mL at 37° C. in a 5% CO2 incubator.
General procedure for in vitro small molecule screening. PBMC were thawed, suspended at a concentration of 1×10^6 cell/mL in growth media and 200 μL was aliquoted into each well of a 96-well plate for a total of 0.2×10^6 cells per well. PBMC were incubated for approximately 16-18 hours at 37° C. in a 5% CO2 humidified incubator. PBMC plates were centrifuged at 500×g for 5 minutes and the growth media was removed. 150 μL of twelve concentrations ranging from 1000 to 0.000238 nM of small molecules prepared in growth media were added to PBMC in duplicate and incubated for 24 hours at 37° C. in a 5% CO2 incubator. Prior to supernatant harvest, cells were spun at 500×g for 5 minutes to remove cell debris. TNF-α activity was assessed in the supernatant by ELISA (eBioscience) or HTRF (CisBio) per the manufacturer's instructions. The optical density at 450 nm and 570 nm (ELISA) or […] (HTRF) was analyzed using an Envision (Perkin Elmer) plate reader, as shown in Table 2.

Structure (SMILES) | EC50 [nM]
CCCN(CCC)C(=O)C1=Cc2ccc(-c3ccc(C(=O)N4CCN[C@H](c5ccccc5)C4)cc3)cc2N=C(N)C1 [Compound 1.2, (R)-2-amino-8-(4-(3-phenylpiperazine-1-carbonyl)phenyl)-N,N-dipropyl-3H-benzo[b]azepine-4-carboxamide] | < 50
CCCN(CCC)C(=O)C1=Cc2ccc(-c3ccc(C(=O)N4CCCC4CO)cc3)cc2N=C(N)C1 (centres unmarked) [Compound 1.11, 2-amino-8-(4-(2-(hydroxymethyl)pyrrolidine-1-carbonyl)phenyl)-N,N-dipropyl-3H-benzo[b]azepine-4-carboxamide] | 50 to 500
CCCN(CCC)C(=O)C1=Cc2ccc(-c3ccc(C(=O)N4CCC(O)(c5ccccc5)CC4)cc3)cc2N=C(N)C1 [Compound 1.5, 2-amino-8-(4-(4-hydroxy-4-phenylpiperidine-1-carbonyl)phenyl)-N,N-dipropyl-3H-benzo[b]azepine-4-carboxamide] | 50 to 500
CCCN(CCC)C(=O)C1=Cc2ccc(-c3ccc(C(=O)N4CCCC4c4ccccc4)cc3)cc2N=C(N)C1 (centres unmarked) [Compound 1.10, 2-amino-8-(4-(2-phenylpyrrolidine-1-carbonyl)phenyl)-N,N-dipropyl-3H-benzo[b]azepine-4-carboxamide] | 50 to 500
CCCN(CCC)C(=O)C1=Cc2ccc(-c3ccc(C(=O)N4CCCC(CO)C4)cc3)cc2N=C(N)C1 (centres unmarked) [Compound 1.6, 2-amino-8-(4-(3-(hydroxymethyl)piperidine-1-carbonyl)phenyl)-N,N-dipropyl-3H-benzo[b]azepine-4-carboxamide] | 50 to 500
CCCN(CCC)C(=O)C1=Cc2ccc(-c3ccc(C(=O)N4CCN[C@@H](c5ccccc5)C4)cc3)cc2N=C(N)C1 [Compound 1.3, (S)-2-amino-8-(4-(3-phenylpiperazine-1-carbonyl)phenyl)-N,N-dipropyl-3H-benzo[b]azepine-4-carboxamide] | < 50
CCCN(CCC)C(=O)C1=Cc2ccc(-c3ccc(C(=O)N4CCc5ccccc5C4)cc3)cc2N=C(N)C1 [Compound 1.8, 2-amino-N,N-dipropyl-8-(4-(1,2,3,4-tetrahydroisoquinoline-2-carbonyl)phenyl)-3H-benzo[b]azepine-4-carboxamide] | > 500
CCCN(CCC)C(=O)C1=Cc2ccc(-c3ccc(C(=O)N4CCNC(c5ccccc5)C4)cc3)cc2N=C(N)C1 (centres unmarked) [Compound 1.1, 2-amino-8-(4-(3-phenylpiperazine-1-carbonyl)phenyl)-N,N-dipropyl-3H-benzo[b]azepine-4-carboxamide] | < 50
CCCN(CCC)C(=O)C1=Cc2ccc(-c3ccc(C(=O)N4CCC(CO)(c5ccccc5)CC4)cc3)cc2N=C(N)C1 [Compound 1.7, 2-amino-8-(4-(4-(hydroxymethyl)-4-phenylpiperidine-1-carbonyl)phenyl)-N,N-dipropyl-3H-benzo[b]azepine-4-carboxamide] | > 500
CCCN(CCC)C(=O)C1=Cc2ccc(-c3ccc(C(=O)N4CCN(c5ccccc5)CC4)cc3)cc2N=C(N)C1 [Compound 1.4, 2-amino-8-(4-(4-phenylpiperazine-1-carbonyl)phenyl)-N,N-dipropyl-3H-benzo[b]azepine-4-carboxamide] | 50 to 500
CCCN(CCC)C(=O)C1=Cc2ccc(-c3ccc(C(=O)N4CCC(O)(c5ccccc5)C4)cc3)cc2N=C(N)C1 (centres unmarked) [Compound 1.9, 2-amino-8-(4-(3-hydroxy-3-phenylpyrrolidine-1-carbonyl)phenyl)-N,N-dipropyl-3H-benzo[b]azepine-4-carboxamide] | 50 to 500

Source: patent US20220048895A1, “SUBSTITUTED BENZAZEPINE COMPOUNDS, CONJUGATES, AND USES THEREOF” (SILVERBACK THERAPEUTICS, INC., priority 2018, published 2022)
